Starred links: 1 amine or outer side, 2 acyl side, 3 side chain; linkers in the order of their positions; H or OH if unused. Positions of bridges follow the written chain, without caps; N, C: chain ends. Non-standard residues stand in square brackets, D forms with d. Residues, ends and D or L forms follow the SMILES beside them. *: point of attachment. hPhe(3-Cl-4-CF3) = N[C@@H](CCc1ccc(C(F)(F)F)c(Cl)c1)C(=O)O; NMePhe(4-CF3) = CN[C@@H](Cc1ccc(C(F)(F)F)cc1)C(=O)O; X29 = N#Cc1cc(CC[C@H](N[*:1])C(=O)[*:2])cc(Cl)c1Cl; 3Oxa8azabicyclo(3.2.1)octane = C1CC2COCC1N2*; NMePhe(4-Me) = CN[C@@H](Cc1ccc(C)cc1)C(=O)O; NMedβ3hAla = C[C@H](CC(=O)[*:2])N(C)[*:1]; NMeAla(cPent) = CN[C@@H](CC1CCCC1)C(=O)O; NMePhe(2-F) = CN[C@@H](Cc1ccccc1F)C(=O)O; Phe(3-I) = N[C@@H](Cc1cccc(I)c1)C(=O)O; NMeAla(cPr) = CN[C@@H](CC1CC1)C(=O)O; NMehPhe = CN[C@@H](CCc1ccccc1)C(=O)O; Phe(2-Me) = Cc1ccccc1C[C@H](N)C(=O)O; NMe3Pal = CN[C@@H](Cc1cccnc1)C(=O)O; NMeCha = CN[C@@H](CC1CCCCC1)C(=O)O; NMeChg = CN[C@H](C(=O)O)C1CCCCC1; NMeI = CC[C@H](C)[C@H](NC)C(=O)O; NMeD = CN[C@@H](CC(=O)O)C(=O)O; NMeL = CN[C@@H](CC(C)C)C(=O)O; NMeNva = CCC[C@H](NC)C(=O)O; NMeV = CN[C@H](C(=O)O)C(C)C; Morpholide = C1CN(*)CCO1; NMeA = CN[C@@H](C)C(=O)O; NMeAib = CNC(C)(C)C(=O)O; Piperidide = C1CCN(*)CC1; Ac5c = NC1(C(=O)O)CCCC1; Aze = O=C(O)[C@@H]1CCN1; Sar = CNCC(=O)O
Experiments:
[1] = test system: Human pancreatic cancer cell line AsPC-1; assay: Measurement of AsPC-1 cell growth inhibition (AsPC-1 CGI); format: cell-based; settings: 96 h
Outline: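 AsPC-1 cells in 15% FBS RPMI-1640 were exposed to test compound for 96 hours at 37° C, with CellTiter-Glo as endpoint.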

[2] = target: T1, Kras and SOS1 (biotin-tagged human Kras loaded with GDP, His-tagged human SOS1) (Homo sapiens, UniProt P01116, G12D); assay: Protein-protein interaction inhibition between Kras and SOS1 (KrasGl2D-SOS PPI) using AlphaScreen; format: binding; settings: AlphaScreen; biotin-tagged human Kras loaded with GDP, His-tagged human SOS1; read-out: KRAS G12D-SOS PPI IC50
T1 construct: made in house; host or cells: E. coli (stated for Kras only)
T1 sequence (P01116 1-188 isoform P01116-2 G12D): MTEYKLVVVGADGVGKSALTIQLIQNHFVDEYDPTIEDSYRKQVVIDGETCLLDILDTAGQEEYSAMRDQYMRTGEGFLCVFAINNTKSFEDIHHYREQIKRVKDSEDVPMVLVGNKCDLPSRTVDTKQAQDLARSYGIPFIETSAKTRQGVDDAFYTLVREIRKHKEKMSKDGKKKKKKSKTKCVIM
Outline: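 AlphaScreen format: Ni donor beads capture His-SOS1, streptavidin acceptor beads capture biotinylated Kras (E. coli-expressed, GDP-loaded post-purification). Excite 680 nm, read 520-620 nm.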

SMILES | IC50 [1] [nM] | IC50 [2] [nM]
CC[C@H](C)[C@@H]1NC(=O)[C@H](CC2CC2)N(C)C(=O)C[C@@H](C(=O)N2CCCCC2)N(C)C(=O)[C@H](C2CCCCC2)N(C)C(=O)C2(CCCC2)NC(=O)[C@@H]2CCCN2C(=O)[C@H](CCc2ccc(C(F)(F)F)c(Cl)c2)NC(=O)CN(C)C(=O)[C@H](CC2CCCCC2)N(C)C(=O)CN(C)C(=O)CN(C)C1=O [Compound 68] ([NMeAla(cPr)]I[Sar][Sar][NMeCha][Sar][hPhe(3-Cl-4-CF3)]P[Ac5c][NMeChg][NMeD]-Piperidide; lactam N-11) | 50 to 100 | 0.58
CC[C@H](C)[C@@H]1NC(=O)[C@H](CC(C)C)N(C)C(=O)C[C@@H](C(=O)N2C3CCC2COC3)N(C)C(=O)[C@H](C2CCCCC2)N(C)C(=O)C2(CCCC2)NC(=O)[C@@H]2CCCN2C(=O)[C@H](CCc2ccc(C(F)(F)F)c(Cl)c2)NC(=O)CN(C)C(=O)[C@H](Cc2ccc(C(F)(F)F)cc2)N(C)C(=O)CN(C)C(=O)CN(C)C1=O [Compound 1932] ([NMeL]I[Sar][Sar][NMePhe(4-CF3)][Sar][hPhe(3-Cl-4-CF3)]P[Ac5c][NMeChg][NMeD]-{3Oxa8azabicyclo(3.2.1)octane}; lactam N-11) | 50 to 100 | 1.1
CCC[C@H]1C(=O)N[C@@H]([C@@H](C)CC)C(=O)N(C)CC(=O)N(C)CC(=O)N(C)[C@@H](CC2CCCC2)C(=O)N(C)CC(=O)N[C@@H](CCc2ccc(C(F)(F)F)c(Cl)c2)C(=O)N2CCC[C@H]2C(=O)NC2(CCCC2)C(=O)N(C)[C@@H](C2CCCCC2)C(=O)N(C)[C@H](C(=O)N2CCOCC2)CC(=O)N1C [Compound 1998] ([NMeNva]I[Sar][Sar][NMeAla(cPent)][Sar][hPhe(3-Cl-4-CF3)]P[Ac5c][NMeChg][NMeD]-Morpholide; lactam N-11) | 100 to 500 | 0.75
CC[C@H](C)[C@@H]1NC(=O)[C@H](CC(C)C)N(C)C(=O)C[C@@H](C(=O)N2C3CCC2COC3)N(C)C(=O)[C@H](C2CCCCC2)N(C)C(=O)C2(CCCC2)NC(=O)[C@@H]2CCCN2C(=O)[C@H](CCc2ccc(C(F)(F)F)c(Cl)c2)NC(=O)CN(C)C(=O)[C@H](Cc2ccc(C)cc2)N(C)C(=O)CN(C)C(=O)CN(C)C1=O [Compound 1869] ([NMeL]I[Sar][Sar][NMePhe(4-Me)][Sar][hPhe(3-Cl-4-CF3)]P[Ac5c][NMeChg][NMeD]-{3Oxa8azabicyclo(3.2.1)octane}; lactam N-11) | 50 to 100 | 0.76
CC[C@H](C)[C@@H]1NC(=O)[C@H](C)N(C)C(=O)C[C@@H](C(=O)N2CCCCC2)N(C)C(=O)[C@H](C(C)C)N(C)C(=O)C2(CCCC2)NC(=O)[C@@H]2CCCN2C(=O)[C@H](CCc2cc(Cl)c(Cl)c(C#N)c2)NC(=O)CN(C)C(=O)[C@H](CC2CCCCC2)N(C)C(=O)CN(C)C(=O)CN(C)C1=O [Compound 2071] ([NMeA]I[Sar][Sar][NMeCha][Sar][X29]P[Ac5c][NMeV][NMeD]-Piperidide; lactam N-11) | > 500 | 9.2
CC[C@H](C)[C@@H]1NC(=O)[C@H](CC(C)C)N(C)C(=O)C[C@@H](C(=O)N(C)C)N(C)C(=O)[C@H]([C@@H](C)CC)N(C)C(=O)C2(CCCC2)NC(=O)[C@H](Cc2cccnc2)N(C)C(=O)[C@H](CCc2ccc(C(F)(F)F)c(Cl)c2)NC(=O)CN(C)C(=O)[C@H](Cc2ccc(C)cc2)N(C)C(=O)[C@@H]2CCN2C(=O)[C@H](C)N(C)C1=O [Compound 243] ([NMeL]I[NMeA][Aze][NMePhe(4-Me)][Sar][hPhe(3-Cl-4-CF3)][NMe3Pal][Ac5c][NMeI][NMeD]-NMe2; lactam N-11) | 20 to 50 | 0.43
CC[C@H](C)[C@@H]1NC(=O)[C@H](CC(C)C)N(C)C(=O)C[C@@H](C)N(C)C(=O)[C@H](C(C)C)N(C)C(=O)C2(CCCC2)NC(=O)[C@@H]2CCCN2C(=O)[C@H](CCc2ccc(C(F)(F)F)c(Cl)c2)NC(=O)CN(C)C(=O)[C@H](CCc2ccccc2)N(C)C(=O)CN(C)C(=O)CN(C)C1=O [Compound 1634] (cyclo([Ac5c][NMeV][NMedβ3hAla][NMeL]I[Sar][Sar][NMehPhe][Sar][hPhe(3-Cl-4-CF3)]P)) | 50 to 100 | 13
CC[C@H](C)[C@@H]1NC(=O)[C@H](CC(C)C)N(C)C(=O)C[C@@H](C(=O)N2CCCCC2)N(C)C(=O)[C@H](CC(C)C)NC(=O)C(C)(C)N(C)C(=O)[C@H](Cc2ccccc2C)NC(=O)[C@H](Cc2cccc(I)c2)NC(=O)CN(C)C(=O)[C@H](Cc2ccc(C)cc2)N(C)C(=O)CN(C)C(=O)CN(C)C1=O [Compound 596] ([NMeL]I[Sar][Sar][NMePhe(4-Me)][Sar][Phe(3-I)][Phe(2-Me)][NMeAib]L[NMeD]-Piperidide; lactam N-11) | > 500 | 34
CC[C@H](C)[C@@H]1NC(=O)[C@H](CC(C)C)N(C)C(=O)C[C@@H](C(=O)N2CCCCC2)N(C)C(=O)[C@H](C(C)C)N(C)C(=O)C2(CCCC2)NC(=O)[C@@H]2CCCN2C(=O)[C@H](CCc2ccc(C(F)(F)F)c(Cl)c2)NC(=O)CN(C)C(=O)[C@H](Cc2ccccc2F)N(C)C(=O)CN(C)C(=O)CN(C)C1=O [Compound 1583] ([NMeL]I[Sar][Sar][NMePhe(2-F)][Sar][hPhe(3-Cl-4-CF3)]P[Ac5c][NMeV][NMeD]-Piperidide; lactam N-11) | 100 to 500 | 12

From patent publication US12371454B2, “Cyclic peptide compound having Kras inhibitory action” (priority 2019, dated 2025)
